These results are taken from patent US8288377B2, “Inhibitors of the interaction between MDM2 and p53” (Janssen Pharmaceutica N.V., priority 2007, dated 2012).

For test [1], the system named is A2780 ovarian cancer cells. Kind of test: Proliferation assay (Alamar Blue). Type of test: cell-based. The conditions noted are these: Homo sapiens, 96 h, 4-day incubation, read-out: pIC50 (negative log value of the IC50-value) (converted). As to the method: Cellular activity of the compounds of formula (I) was determined on A2780 tumour cells using a colorimetric assay for cell toxicity or survival (see example C.2).
The human A2780 ovarian cancer cells were a kind gift from Dr. T. C. Hamilton (Fox Chase Cancer Centre, Pennsylvania, U.S.A.). The cells were cultured in RPMI 1640 medium supplemented with 2 mM L-Glutamine, 50 μg/ml gentamicin and 10% fetal calf serum.
Resazurin was purchased from Aldrich (Prod. No. 199303). Potassium ferrocyanide, potassium ferricyanide, KH2PO4 and K2HPO4 were purchased from Sigma (Prod. Nos. P9387, P8131, P5655 and P8281, respectively).
Potassium Phosphate Buffer 0.1 M (PPB) was made as follows: 2.72 gram KH2PO4 and 13.86 gram K2HPO4 were dissolved in 500 ml milli-Q H2O, the pH was adjusted to pH 7.4 and the volume was brought to 1 liter with milli-Q H2O; the buffer was filter sterilised and stored at room temperature. Resazurin stock solution (PPB-A) was prepared fresh by dissolving 45 mg resazurin in 15 ml PBS. 30 mM potassium ferricyanide (PPB-B) was prepared by dissolving 0.987 gram potassium ferricyanide in 100 ml PPB. 30 mM potassium ferrocyanide (PPB-C) was prepared by dissolving 1.266 gram potassium ferrocyanide in 100 ml PPB.
Mixture of PPB-A, PPB-B and PPB-C was prepared by mixing equal volumes of the respective solutions. Resazurin work solution (herein termed “Alamar Blue” solution) was prepared by diluting said mixture 20× (vol/vol) in PPB and filter sterilising; the Alamar Blue solution could be kept at 4° C. for a maximum of 2 weeks.
For experiments in 384 wells plates the cells were seeded at a density of 5×10^3 cells/ml in Falcon 384-well culture plates (Life Technologies, Merelbeke, Belgium), black with clear bottom, in 45 μl culture medium. Cells were allowed to adhere to plastic for 24 hr. The tested compound was pre-diluted (1/50 in culture medium) and 5 μl pre-diluted compound was added to the wells. Following 4-day incubation, 10 μl of the Alamar Blue solution was added to each well and the cells were further incubated for 5 hrs (A2780) at 37° C. The fluorescence intensity was measured for each well with a Fluorescence plate reader (Fluorskan, Labsystems, 540 nm excitation and 590 nm emission)
The antiproliferative activity was calculated as percentage of remaining viable cells in treated versus control (untreated cells) conditions. Within an experiment, the result for each experimental condition is the mean of 3 replicate wells. When appropriate, the experiments were repeated to establish full concentration-response curves. When appropriate, IC50-values (concentration of the drug, needed to reduce cell growth to 50% of the control) were computed using probit analysis for graded data (Finney, D. J., Probit Analyses, 2nd Ed. Chapter 10, Graded Responses, Cambridge University Press, Cambridge 1962). Herein the effects of test compounds are expressed as pIC50 (the negative log value of the IC50-value) (see Table 4).
A general note: Alamar Blue is a resazurin reagent that responds to reducing activity.

Another test relates to p53 in A2780 cells. Briefly: p53 ELISA (preservation of p53 in A2780 cells). Type of test: cell-based. The conditions noted are these: Homo sapiens, treated with compound for 16 hours, read-out: p53-elisa LAD (lowest dose giving at least 140% of the value for p53 present in the control). As to the method: The capacity of the compounds to preserve p53 in A2780 cells was measured with the p53 enzyme linked immunosorbent assay (ELISA). The p53 assay is a “sandwich” enzyme immunoassay employing two polyclonal antibodies. A polyclonal antibody, specific for the p53 protein, has been immobilized onto the surface of the plastic wells. Any p53 present in the sample to be assayed will bind to the capture antibody. The biotinylated detector polyclonal antibody also recognizes p53 protein, and will bind to any p53, which has been retained by the capture antibody. The detector antibody, in turn, is bound by horseradish peroxidase-conjugated streptavidin. The horseradish peroxidase catalyses the conversion of the chromogenic substrate o-phenylene diamine, the intensity of which is proportional to the amount of p53 protein bound to the plate. The coloured reaction product is quantified using a spectrophotometer. Quantitation is achieved by the construction of a standard curve using known concentrations of purified recombinant HIS tagged p53 protein (see example C.1).
A2780 cells (ATCC) were cultivated in RPMI 1640 supplemented with 10% fetal calf serum (FCS), 2 mM L-glutamine and gentamycin at 37° C. in a humidified incubator with 5% CO2.
A2780 cells were seeded at 20.000 cells per well in a 96 well plate, cultured for 24 hours and treated with compound for 16 hours at 37° C. in a humidified incubator. After incubation, the cells were washed once with phosphate-buffered saline and 30 μl, per well, low salt RIPA buffer (20 mM tris, pH7.0, 0.5 mM EDTA, 1% Nonidet P40, 0.5% DOC, 0.05% SDS, 1 mM PMSF, 1 μg/ml aprotinin and 0.5 μ/ml leupeptin) was added. Plates were placed on ice for 30 minutes to complete the lysis. p53 protein was detected in de lysates by using the sandwich ELISA, described below.
High binding polystyrene EIA/RIA 96 well plates (Costar 9018) were coated with the capture antibody pAb1801 (Abcam ab28-100) at a concentration of 1 μg/ml in coating buffer (0.1 M NaHCO3 pH8.2), 50 μl per well. The antibody was allowed to adhere overnight at 4° C. Coated plates were washed once with phosphate-buffered saline (PBS)/0.05% Tween 20 and 300 μl of blocking buffer (PBS, 1% bovine serum albumins (BSA)) was added, for an incubation period of 2 hours at room temperature. Dilutions of purified recombinant HIS tagged p53 protein, ranging from 3-200 ng/ml, were made in blocking buffer and used as standards.
Plates were washed twice with PBS/0.05% Tween 20 and blocking buffer or standards were added at 80 μl/well. To the standards, 20 μl of lysis buffer was added. The samples were added to the other wells at 20 μl lysate/well. After an overnight incubation at 4° C., plates were washed twice with PBS/0.05% Tween 20. Aliquots of 100 μl secondary polyclonal antibody p53(FL-393) (Tebubio, sc-6243) at a concentration of 1 μg/ml in blocking buffer were added to each well and allowed to adhere for 2 hours at room temperature. Plates were washed three times with PBS/0.05% Tween 20. Detection antibody anti-rabbit HRP (sc-2004, Tebubio) at 0.04 μg/ml in PBS/1% BSA was added and incubated for 1 hour at room temperature. Plates were washed three times with PBS/0.05% Tween 20 and 100 μl of substrate buffer was added (substrate buffer was prepared shortly before use by adding 1 tablet of 10 mg o-phenylene diamine (OPD) from Sigma and 125 μl 3% H2O2 to 25 ml OPD buffer: 35 mM citric acid, 66 mM Na2HPO4, pH5.6). After 5 to 10 minutes, colour reaction was stopped by adding 50 μl stop buffer (1 M H2SO4) per well. The absorbance at dual wavelengths of 490/655 nm was measured using a Biorad micro plate reader and the results were then analyzed.
For each experiment, controls (containing no drug) and a blank incubation (containing no cells or drugs) were run in parallel. The blank value was subtracted from all control and sample values. For each sample, the value of p53 (in absorbance units) was expressed as the percentage of the value for p53 present in the control. […]
(In general: ELISA stands for enzyme-linked immunosorbent assay.)

Broadly, the IC50 is the concentration needed to halve the response being measured.

As to `CN1CCC2(CC1)CN(CCc1c[nH]c3ccccc13)c1ccc(Nc3ccncc3)cc1O2` [Compound 51], the IC50 in test [1] is 3.02 µM. Moreover, in the test with p53 in A2780 cells, the minimal effective concentration was over 10 µM.
As for `Cc1cccc2c(CCN3CC(C)(C)Oc4cc(Nc5ccncc5)ccc43)c[nH]c12` [Compound 52], in test [1], the IC50 is 3.09 µM. In addition, in the test on p53 in A2780 cells, the minimal effective concentration was over 10 µM.
Taken in the same sequence, the figures for `OC1CCc2c(Nc3ccc4c(c3)OCCN4CCc3c[nH]c4ccccc34)ccnc21` (centres unmarked) [Compound 1] were 0.427 µM and 0.1 µM.
Taken in the same sequence, the figures for `OC1CCc2c(Nc3ccc4c(c3)OC(c3ccoc3)CN4CCc3c[nH]c4ccccc34)ccnc21` (centres unmarked) [Compound 5] were 2.57 µM and 0.3 µM.
Taken in the same sequence, the figures for `Cc1cccc2c(CCN3CC(C)Oc4cc(Nc5ccnc6c5CCC6O)ccc43)c[nH]c12` (centres unmarked) [Compound 42] were 4.79 µM and over 10 µM.
With `OCc1cc(Nc2ccc3c(c2)OC2(CCCCC2)CN3CCc2c[nH]c3ccccc23)ccn1` [Compound 41], the IC50 in test [1] is about 4.79 µM. In the test on p53 in A2780 cells, the minimal effective concentration is over 10 µM.
The matching figures for `CCC1(C)CN(CCc2c[nH]c3ccccc23)c2ccc(Nc3ccnc(CO)c3)cc2O1` (centres unmarked) [Compound 46]: 6.92 µM and over 10 µM.
The matching figures for `COc1cccc2c(CCN3CCOc4cc(Nc5ccncc5)ccc43)c[nH]c12` [Compound 47]: about 6.46 µM and over 10 µM.
Taken in the same sequence, the figures for `CC1(C)CN(CCc2c[nH]c3ccccc23)c2ccc(Nc3ccnc4c3CCC4O)cc2O1` (centres unmarked) [Compound 77] were 2.19 µM and 3 µM.
For the compound `c1ccc2c(CCN3CC4(CCSCC4)Oc4cc(Nc5ccncc5)ccc43)c[nH]c2c1` [Compound 56], the IC50 in test [1] was about 4.79 µM. Further, in the test with p53 in A2780 cells, the minimal effective concentration was over 10 µM.
As for `Cc1cccc2c(CCN3CC(C)(C)Oc4cc(Nc5ccnc6c5CCC6O)ccc43)c[nH]c12` (centres unmarked) [Compound 44], the IC50 in test [1] is 5.01 µM. Further, in the test on p53 in A2780 cells, the minimal effective concentration is over 10 µM.
The matching figures for `OC1CCc2c(Nc3ccc4c(c3)OC3(CCCC3)CN4CCc3c[nH]c4ccccc34)ccnc21` (centres unmarked) [Compound 28]: 4.9 µM and 3 µM.
As to `OCc1cc(Nc2ccc3c(c2)OC2(CCSCC2)CN3CCc2c[nH]c3ccccc23)ccn1` [Compound 39], the half-inhibitory concentration (IC50) in test [1] was about 4.79 µM. Further, the minimal effective concentration with p53 in A2780 cells is over 10 µM.
Regarding `c1ccc2c(CCN3CC4(CCCCC4)Oc4cc(Nc5ccncc5)ccc43)c[nH]c2c1` [Compound 55], the IC50 in test [1] was 3.72 µM. Also, the minimal effective concentration with p53 in A2780 cells was over 10 µM.
`c1ccc2c(CCN3CCCc4cc(Nc5ccncc5)ccc43)c[nH]c2c1` [Compound 23]: the IC50 in test [1] is 3.02 µM. Moreover, the minimal effective concentration in the test with p53 in A2780 cells is over 10 µM.
The matching figures for `OCc1cc(Nc2ccc3c(c2)CCCN3CCc2c[nH]c3ccccc23)ccn1` [Compound 66]: 1.41 µM and 3 µM.
Taken in the same sequence, the figures for `CN1CCN(CCc2c[nH]c3ccccc23)c2ccc(Nc3ccnc4c3CCC4O)cc21` (centres unmarked) [Compound 75] were about 5.25 µM and over 10 µM.
`Cc1cccc2c(CCN3CC(C)(C)Oc4cc(Nc5ccnc(CO)c5)ccc43)c[nH]c12` [Compound 38]: the IC50 in test [1] was 3.72 µM. In addition, in the test on p53 in A2780 cells, the minimal effective concentration is over 10 µM.
As to `CN1CCC2(CC1)CN(CCc1c[nH]c3ccccc13)c1ccc(Nc3ccnc(CO)c3)cc1O2` [Compound 43], in test [1], the IC50 is about 5.01 µM. Also, the minimal effective concentration with p53 in A2780 cells is over 10 µM.
The matching figures for `OCc1cc(Nc2ccc3c(c2)OC(c2ccoc2)CN3CCc2c[nH]c3ccccc23)ccn1` (centres unmarked) [Compound 35]: about 5.13 µM and 3 µM.
Take `OC1CCc2c(Nc3ccc4c(c3)CCCN4CCc3c[nH]c4ccccc34)ccnc21` (centres unmarked) [Compound 11]: the IC50 in test [1] was 2.34 µM. Also, the minimal effective concentration in the test on p53 in A2780 cells was 0.1 µM.
Turning to `Cc1cccc2c(CCN3CC4(CCCCC4)Oc4cc(Nc5ccnc(CO)c5)ccc43)c[nH]c12` [Compound 34], the half-inhibitory concentration (IC50) in test [1] is 4.37 µM. The minimal effective concentration with p53 in A2780 cells worked out at 0.3 µM.
In the case of `c1ccc2c(CCN3CCOc4cc(Nc5ccncc5)ccc43)csc2c1` [Compound 6], the IC50 in test [1] is 5.5 µM. In addition, the minimal effective concentration with p53 in A2780 cells was over 10 µM.
As to `OCc1cc(Nc2ccc3c(c2)OC2(CCOCC2)CN3CCc2c[nH]c3ccccc23)ccn1` [Compound 45], the concentration for half-maximal inhibition (IC50) in test [1] is 6.31 µM. The minimal effective concentration with p53 in A2780 cells is over 10 µM.
Take `CN1CCN(CCc2c[nH]c3ccccc23)c2ccc(Nc3ccnc(CO)c3)cc21` [Compound 20]: the IC50 in test [1] is 4.79 µM. The minimal effective concentration with p53 in A2780 cells was found to be 3 µM.
Taken in the same sequence, the figures for `CC(C)N1CCC2(CC1)CN(CCc1c[nH]c3ccccc13)c1ccc(Nc3ccnc(CO)c3)cc1O2` [Compound 36] were 3.39 µM and over 10 µM.
Taken in the same sequence, the figures for `Cc1cccc2c(CCN3CC4(CCCCC4)Oc4cc(Nc5ccnc6c5CCC6O)ccc43)c[nH]c12` (centres unmarked) [Compound 25] were about 5.62 µM and 0.03 µM.
Taken in the same sequence, the figures for `O=C1COc2cc(Nc3ccnc4c3CCC4O)ccc2N1CCc1c[nH]c2ccccc12` (centres unmarked) [Compound 2] were about 6.03 µM and 1 µM.
